Measurements taken from paper PMC8202924, “Emodepside targets SLO-1 channels of Onchocerca ochengi and induces broad anthelmintic effects in a bovine model of onchocerciasis” (PLoS Pathogens, 2021).

How the values were obtained:
[1] = rat, over four weeks orally in diet; cited from earlier work
Source text: Blood glucose has been identified as a simple biomarker for emodepside exposure in humans.

[2] = Skin concentration of emodepside in the main trial, LC-MS/MS; assay type: in vivo, zebu (Ngaoundéré Gudali) cattle (B. t. indicus)
Protocol: Bovine samples (EDTA-plasma, skin snips and nodules) were stored at –80°C in Cameroon and shipped according to international transportation guidelines on dry ice to Bayer, Germany. Due to suspected contamination with other pathogens, samples required decontamination. Based on modified WHO guidelines for viral inactivation and reports of virus stability in fluids and solid media issued by the United States Army, decontamination of samples was performed. Samples were thawed slowly in a microbiological safety cabinet and the plasma samples were vortexed gently. Skin snips and nodules were homogenized in a Qiagen TissueLyser II (Qiagen NV, Hilden, the Netherlands) with stainless steel beads. Homogenates were weighed and mixed with 4.5 volumes of a 0.5% collagenase solution (collagenase from Clostridium histolyticum [>125 IU/mg] Merck KGaA, Darmstadt, Germany), then incubated at 37°C with orbital mixing at 140 rpm for 48 h.
Plasma samples, skin and nodule homogenates were precipitated in a 1:10 ratio with acetonitrile using a vortex mixer at 150 rpm for 10 min, then centrifuged for 5 min at 14,000 rpm. The supernatants were pipetted into gas-tight vials and incubated at 80°C for 21 min to achieve a core temperature of 80°C for 10 min, then cooled to 4°C in a water-ice bath. Finally, samples were filtered using a cellulose sterile filter (S&S Spartan 13/30) into standard HPLC vials for liquid chromatography–mass spectrometry analysis. For liquid chromatography on a C18 column, a water/methanol gradient (containing 10 mmol ammonium acetate and 0.1 mL/L formic acid) was used. Quantification of emodepside was performed by tandem mass spectrometry on an API 5500 instrument (AB Sciex, Darmstadt, Germany) using the transition of m/z = 1,120 ([M + H]^+) to its product ion m/z = 343.

[3] = tested on: Onchocerca ochengi adult worms in nodules; assay: Histopathology of nodules, worm integrity scores after Striebel; assay type: in vivo; set-up: key to Cumulative histopathological score, representative section: sum of 5 organ grades: 5 = healthy, 15 = max damage, 16 = debris/none; settings: MRSM
Source text: Nodules for histopathology (n = 72) were collected up to day 290, after which few were available in the melarsomine (MRSM) group. For consistency, nodules were taken from the same three animals in each experimental group at each timepoint. Formalin-fixed nodules were embedded in paraffin, sectioned, and stained with hematoxylin and eosin or Giemsa as previously described or with Lendrum’s carbol chromotrope to specifically stain eosinophils.
Histological sections of nodules were scored by a single observer blinded to treatment group using the form proposed by Striebel, which was developed based on observations of O. volvulus (human) and Onchocerca gibsoni (bovine) nodules. In the current study, O. ochengi nodules were graded by applying a similar system in which the integrity of five structures or organs (cuticle, hypodermis, longitudinal muscle, pseudocoelomic cavity and gut) were classified through microscopical assessment of specific anatomical features (e.g., vacuoles in the hypodermis or host cells visible in the pseudocoelomic cavity) according to the categories in Table A in S1 Text. These grades were used to assign a pathology score for each aspect of parasite anatomy examined. Scores for all five structures or organs were then added together to produce a cumulative overall score, with a minimum score of 5 for parasite sections judged to be healthy across all five structures or organs. Since parasite sections showing extensive damage across all five anatomical regions could score a maximum of 15, sections containing cuticular debris only, or where parasites were unidentifiable in the section, were allocated a total score of 16. Where sections of male worms were present in the nodule these were scored separately to the females. Some sections contained more than one conjoined nodule. In these cases, females were also scored and recorded individually.
The effect of different treatments relative to either (a) no treatment controls or (b) pre-treatment observations of parasite integrity was analyzed using linear mixed effects models with the nonlinear mixed effects model package in R [63, 64]. Overall scores for parasite integrity were modelled as the response variable compared with (a) treatment groups for each timepoint and (b) different timepoints for each respective treatment group. In both cases, animal identity was modelled as a random effect to account for repeat observations taken from the same individual, and results were adjusted using a post-hoc Bonferroni correction for multiple comparisons. Similarly, to assess the effect of different treatments on cellular infiltrates over time, total PMN or eosinophil counts per high-power field and eosinophils as a percentage of the total PMN population were each modelled as […] variables compared with (a) treatment groups for each timepoint and (b) different timepoints for each respective treatment group.

[4] = tested on: Onchocerca ochengi adult female worms; assay: Embryogram (uterine contents of female worms from nodules); assay type: in vivo; settings: MRSM, 4 mg/kg every other day for 3 days; P = 0.005
Protocol: Tattooed nodules were removed under local anesthesia (lidocaine-epinephrine) on study days -1, 90, 180–190, 270–290, 360 and 550 in a randomized order as previously described. Nodules were trimmed of excess tissue and up to four nodules per animal were processed separately as follows: (1) stored frozen at –80°C for PK analysis (up to day 14 only); (2) injected in toto with 10% neutral-buffered formalin and stored at 4°C for histopathology (up to day 290 only); or (3) dissected immediately in phosphate-buffered saline to separate adult male and female worms. The anterior end of the female worm (which even in viable specimens is the only motile part of the parasite) was removed from the worm mass and incubated alongside intact male worms for 30 min at 37°C for visual motility assessment on a three-point scale. The remaining portion of the female worm mass was subjectively scored for fecundity on a four-point scale (0, uteri empty or worm structure degraded; 1, low; 2, intermediate; 3, normal) by examining the uterine contents microscopically in situ. This was followed by a fully quantitative embryogram to enumerate oocytes, embryonic stages and intrauterine Mf as described previously.
The same principle was applied to the analysis of the uterine contents. […] Over all doses and individual animals, an effect size (m) and corresponding statistics were calculated using R’s lm function.

[5] = 4 mg/kg every other day for 3 days, day 90
[6] = 4 mg/kg every other day for 3 days, day 180
[7] = 4 mg/kg every other day for 3 days, day 290

Q: What does the source list for `CC(C)C[C@H]1C(=O)O[C@H](Cc2ccc(N3CCOCC3)cc2)C(=O)N(C)[C@@H](CC(C)C)C(=O)O[C@H](C)C(=O)N(C)[C@@H](CC(C)C)C(=O)O[C@H](Cc2ccc(N3CCOCC3)cc2)C(=O)N(C)[C@@H](CC(C)C)C(=O)O[C@H](C)C(=O)N1C` [emodepside]?
A: no-observed-adverse-effect level [1]: 4 to 5 mg/kg; Median ratio between skin and plasma concentration ([2]; 54 occasions, same study day, all emodepside groups): 1.1; tmax observed in skin ([2]; EMO1L, 0.15 mg/kg IV single dose, animals in order B0696, B0698, B0700, B0730, B0731, B0762): 24 h; tmax observed in skin ([2]; EMO7H, 0.75 mg/kg IV daily for 7 days, animals in order B0404, B0434, B0694, B0695, B0734, B0750, B0765): 24 h

Q: For `NCCS[As](SCCN)c1ccc(Nc2nc(N)nc(N)n2)cc1` [melarsomine], which “Cumulative pathology scores of worm sections” value ([3]; 4 mg/kg every other day for 3 days, all post-treatment timepoints, P <0.05) is on record?
A: significantly higher pathology scores than PCBO

Q: And the “Cumulative histopathological worm score, mixed-effects coefficient (SE) vs placebo” value [3, 5]?
A: 8.00 (2.01)

Q: What about the “Cumulative histopathological worm score, mixed-effects coefficient (SE) vs pre-treatment (day 1)” value [3, 5] of the same compound?
A: 9.45 (1.81)

Q: And the “Degenerate nodules (no parasite sections or only cuticular fragments), of three nodules” value [3, 5]?
A: 1

Q: What about the “Mean histopathological score, cuticle” value [3, 5] of the same compound?
A: 3.00

Q: And the “Mean histopathological score, gut” value [3, 5]?
A: 3.33

Q: What about the “Mean histopathological score, hypodermis” value [3, 5] of the same compound?
A: 3.33

Q: And the “Mean histopathological score, longitudinal muscle” value [3, 5]?
A: 2.67

Q: And the “Mean histopathological score, pseudocoleomic cavity” value [3, 5]?
A: 3.33

Q: What about the “Cumulative histopathological worm score, mixed-effects coefficient (SE) vs placebo” value [3, 6] of the same compound?
A: 7.31 (2.41)

Q: What about the “Cumulative histopathological worm score, mixed-effects coefficient (SE) vs pre-treatment (day 1)” value [3, 6] of the same compound?
A: 8.12 (1.81)

Q: And the “Degenerate nodules (no parasite sections or only cuticular fragments), of three nodules” value [3, 6]?
A: 2

Q: What about the “Mean histopathological score, cuticle” value [3, 6] of the same compound?
A: 3.33

Q: What about the “Mean histopathological score, gut” value [3, 6] of the same compound?
A: 3.00

Q: What about the “Mean histopathological score, hypodermis” value [3, 6] of the same compound?
A: 3.00

Q: What about the “Mean histopathological score, longitudinal muscle” value [3, 6] of the same compound?
A: 3.00

Q: And the “Mean histopathological score, pseudocoleomic cavity” value [3, 6]?
A: 3.33

Q: What about the “Cumulative histopathological worm score, mixed-effects coefficient (SE) vs placebo” value [3, 7] of the same compound?
A: 8.67 (2.97)

Q: And the “Cumulative histopathological worm score, mixed-effects coefficient (SE) vs pre-treatment (day 1)” value [3, 7]?
A: 11.11 (1.81)

Q: And the “Degenerate nodules (no parasite sections or only cuticular fragments), of three nodules” value [3, 7]?
A: 3

Q: And the “Mean histopathological score, cuticle” value [3, 7]?
A: 4.00

Q: What about the “Mean histopathological score, gut” value [3, 7] of the same compound?
A: 4.00

Q: What about the “Mean histopathological score, hypodermis” value [3, 7] of the same compound?
A: 4.00

Q: And the “Mean histopathological score, longitudinal muscle” value [3, 7]?
A: 4.00

Q: What about the “Mean histopathological score, pseudocoleomic cavity” value [3, 7] of the same compound?
A: 4.00

Q: What about the “Cumulative histopathological score, representative section” value ([3]; day 290, animal B0435, degenerate nodule, no parasites) of the same compound?
A: 16

Q: And the “AUC for all embryonic stages” value [4]?
A: significantly reduced
